In ChEMBL document CHEMBL1121723 (J Med Chem, 1981):

Columns and labels:
[1] = target: Thromboxane-A synthase (Oryctolagus cuniculus); assay: Inhibitory activity against rabbit thromboxane synthetase
[2] = test system: Thromboxane-A synthase (Oryctolagus cuniculus); assay: Compound was tested for its inhibitory activity against Thromboxane synthetase at 25 nM
[3] = test system: Thromboxane-A synthase (Oryctolagus cuniculus); assay: Compound was tested for its inhibitory activity against Thromboxane synthetase; conditions: concentration not given here

Compound	IC50 [1]	inhibition [2]	inhibition [3]
c1cn(CCCCCCCn2ccnc2)cn1	2000 nM	13.4%	
O=C(O)CCCCCCc1c[nH]cn1	20000 nM		
CC(=O)CCCCCCCn1ccnc1	> 1000 nM		
O=C(O)c1ccc(/C=C/Cn2ccnc2)cc1	44 nM		
C[S+]([O-])CCCCCCCCn1ccnc1 (stereo not given)	3300 nM	9%	
O=C(O)Cc1ccc(CCn2ccnc2)cc1	1500 nM		
CC(C)(CCCC#CCn1ccnc1)C(=O)O	9 nM		
O=C(O)CCCc1ccc(-n2ccnc2)cc1	120 nM		
O=C(CCCCCCCn1ccnc1)c1ccccc1	134 nM		
O=C(O)CCCc1ccc(Cn2ccnc2)cc1	1200 nM		
O=C(O)C(O)CCCCCCn1ccnc1 (stereo not given)	140 nM		
CSCCCCCCCCn1ccnc1			11.4%
SCCCCCCCCn1ccnc1			17.5%
O=S(=O)(O)CCCCCCn1ccnc1			8.8%
CC(C)(CC/C=C/C=C/C(=O)O)n1ccnc1	450 nM		
NC(CCCCCCn1ccnc1)C(=O)O (stereo not given)	> 1000 nM		
O=C(O)C(CO)CCCCCCn1ccnc1 (stereo not given)	250 nM		
O=C(O)C(CCCCCCn1ccnc1)C(=O)O	550 nM		
O=C(O)COc1ccccc1Cn1ccnc1	210 nM		
CC(C)(Oc1ccc(Cn2ccnc2)cc1)C(=O)O	25 nM		
O=C(O)/C=C/c1ccc(OCCn2ccnc2)cc1	250 nM		
O=C(O)/C=C/c1cccc(Cn2ccnc2)c1	32 nM		
O=C(O)c1ccc(CCCn2ccnc2)cc1	5 nM		
O=C(O)COc1ccc(Cn2ccnc2)cc1	40 nM		
Cc1nccn1CCCCCCC(=O)O	> 1000 nM		
N#CCCCCCCCn1ccnc1			0%
O=C(O)CCCCCCc1ncc[nH]1	20000 nM		
CC(Oc1ccc(Cn2ccnc2)cc1)C(=O)O (stereo not given)	38 nM		
